Results taken from publication PMC9032987, “Cytotoxic Alkylynols of the Sponge Cribrochalina vasculum: Structure, Synthetic Analogs and SAR Studies” (Marine Drugs, 2022).

Assays:
Type in all cases: cell-based, human
[1] = test system: WI-38 diploid lung fibroblasts; test: MTT cytotoxicity assay in diploid lung fibroblasts WI-38; settings: for IC50: MTT, 72 h post addition, confluent cells, estimated from cell viability curve
Protocol: (§1) Cytotoxicity structure-activity relationship analyses of compounds in NSCLC tumor cells and fibroblasts. Stock solutions (10 mg/mL) of the compounds to be tested were made in DMSO and further diluted with cell culture media prior to structure-activity relationship (SAR) screening as earlier described. To assess anti-tumor activity, the large cell lung carcinoma cell line NSCLC U-1810 (kind gift from Uppsala University) and diploid lung fibroblasts WI-38 [30] were used. U-1810 cells were propagated in RPMI-1640 medium (Sigma-Aldrich, St. Louis, […], USA) supplemented with FBS (10% HyClone) and L-glutamine (2 mmol/L, Invitrogen) while WI-38 fibroblasts were cultured in Eagle’s Minimum Essential Medium (Sigma-Aldrich) with 15% FBS and L-glutamine. For SAR assessment the cytotoxic assay 3-(4,5-dimethylthiazol-2-yl)-2,5 diphenyltetrazolium bromide (MTT) was applied. Profiling of U-1810 cells was carried out at 80% confluency (obtained by seeding 5000 cells/well in a 96-well plate for 24 h prior to treatment) and of WI-38 at 100% confluency (obtained by seeding 18,000 cells/well in a 96-well plate for 24 h prior to compound addition), the later to mimic the behavior of fibroblasts in the human body where they are non-dividing. For SAR evaluation, different concentrations of the compounds were added to fresh media while untreated cells were treated with DMSO corresponding to the amount applied when testing the highest concentration of the different compounds. The cytotoxicity of the compounds was assessed at 72 h post addition to cells by adding MTT solution (0.5 mg/mL, Sigma-Aldrich, 4 h at 37 °C) and dissolving the resulting formazan crystals in an SDS-containing solution (10% SDS and 0.01 mol/L HCl). Absorbance was quantified at 595 nm and the compound-induced cytotoxicity was calculated relative to that observed in DMSO-treated cells. The IC50 values were deduced from survival plots drawn in Graph Pad PRISM software vers.6 and for some of the compounds extrapolated as indicated in footnotes to Table 1.

NSCLC U-1810 cells = test: MTT cytotoxicity assay in NSCLC U-1810 cells; settings: for IC50: MTT, 72 h post addition, estimated from cell viability curve
Protocol: as §1

[2] = MTT cytotoxicity assay in diploid lung fibroblasts WI-38; settings: human, WI-38 diploid lung fibroblasts, 72 h, read-out: cell viability; for viability at 72 h, 188 µM: WI-38, at 188 µM
Protocol: as §1

[3] = calculated at IC50 (WI-38 IC50 / U-1810 IC50)

Q: Which results are given for C#C[C@H](O)/C=C/CCCCCCCCCCCCCCC [scal-R-18, (R,E)-icos-4-en-1-yn-3-ol]?
A: IC50 ([1]; Homo sapiens, WI-38, 72 h): 6.8 µM; IC50 (NSCLC U-1810 cells; Homo sapiens, U-1810, 72 h): 1 µM; Selectivity NSCLC cells (U-1810) vs. diploid fibroblasts (WI-38) (NSCLC U-1810 cells; [3]): 6.8

Q: What does the source list for C#C[C@@H](O)/C=C/CCCCCCCCCCCCCCC [scal-S-18, (S)-icos-(4E)-en-1-yn-3-ol]?
A: IC50 ([1]; Homo sapiens, WI-38, 72 h): 8.5 µM; IC50 (NSCLC U-1810 cells; Homo sapiens, U-1810, 72 h): 1 µM; Selectivity NSCLC cells (U-1810) vs. diploid fibroblasts (WI-38) (NSCLC U-1810 cells; [3]): 8.5

Q: With C#C[C@H](O)CCCCCCCCCCCCCCC [Compound R-32, (R)-octadec-1-yn-3-ol] as the molecule, how does the viability at 72 h, 188 µM [2] read?
A: ~60%

Q: And the IC50 ([1]; Homo sapiens, WI-38, 72 h)?
A: > 188 µM

Q: And the IC50 (NSCLC U-1810 cells; Homo sapiens, U-1810, 72 h)?
A: 1.4 µM

Q: Which IC50 (NSCLC U-1810 cells; Homo sapiens, U-1810, 72 h) does the source give for C#CC(O)c1ccccc1CCCCCCCCCCCCCC (racemic) [rac-48, 1-(2-tetradecylphenyl)prop-2-yn-1-ol] here?
A: ~50 µM

Q: For C#C[C@H](O)/C=C/CCCCCCCCCCCCCCC [Compound R-18, (R,E)-icos-4-en-1-yn-3-ol], which IC50 [1] is on record?
A: 3.4 µM

Q: And the IC50 (NSCLC U-1810 cells)?
A: 0.9 µM

Q: What about the “Selectivity NSCLC cells (U-1810) vs. diploid fibroblasts (WI-38)” value (“Selectivity NSCLC cells” below) (NSCLC U-1810 cells; [3]) of the same molecule?
A: 3.8

Q: With C#C[C@H](O)/C=C/CCCCCCCCCCCCCCCC [Compound 20, (3R)-Henicos-(4E)-en-1-yn-3-ol] as the molecule, how does the IC50 ([1]; Homo sapiens, WI-38, 72 h) read?
A: 14 µM

Q: What about the “cytotoxic activity in NSCLC U-1810 cells (in words)” value (“cytotoxic activity” for short) (NSCLC U-1810 cells) of the same molecule?
A: equally active

Q: And the IC50 (NSCLC U-1810 cells; Homo sapiens, U-1810, 72 h)?
A: 1.4 µM

Q: What about the “Selectivity NSCLC cells” value (NSCLC U-1810 cells; [3]) of the same molecule?
A: 10

Q: What does the source list for C#CC(O)/C=C/C=C/CCCCCCCCCCCCCCC (racemic) [rac-27, (4E,6E)-docosa-4,6-dien-1-yn-3-ol]?
A: cytotoxicity to WI-38 fibroblasts (in words) [1]: did not affect the viability; IC50 ([1]; Homo sapiens, WI-38, 72 h): 70 µM; IC50 (NSCLC U-1810 cells; Homo sapiens, U-1810, 72 h): ~2.4 µM

Q: For C#CC(CCCCCCCCCCCCCCC)SC(C)=O (racemic) [rac-39, S-Octadec-1-yn-3-yl ethanethioate], which viability at 72 h, 154 µM ([2]; WI-38, at 154 µM) is on record?
A: ~85%

Q: And the IC50 ([1]; Homo sapiens, WI-38, 72 h)?
A: > 154 µM

Q: And the “tumor selective cytotoxicity NSCLC vs WI-38 (in words)” value (NSCLC U-1810 cells)?
A: did not display any specific cytotoxicity

Q: What about the IC50 (NSCLC U-1810 cells; Homo sapiens, U-1810, 72 h) of the same molecule?
A: 60 µM

Q: Which IC50 ([1]; Homo sapiens, WI-38, 72 h) does the source give for C#CC(O)CCCCCCCCCCCCCCC (racemic) [rac-32, Octadec-1-yn-3-ol] here?
A: 75 µM

Q: What about the IC50 (NSCLC U-1810 cells; Homo sapiens, U-1810, 72 h) of the same molecule?
A: 3 µM

Q: What about the “Selectivity NSCLC cells” value (NSCLC U-1810 cells; [3]) of the same molecule?
A: 25

Q: Which viability at 72 h, 170 µM ([2]; WI-38, at 170 µM) does the source give for C#CC(O)CCCCCCCCCCCCCCCCC (racemic) [rac-33, Icos-1-yn-3-ol] here?
A: ~100%

Q: What about the IC50 ([1]; Homo sapiens, WI-38, 72 h) of the same molecule?
A: > 170 µM

Q: And the IC50 (NSCLC U-1810 cells; Homo sapiens, U-1810, 72 h)?
A: 2.8 µM

Q: Which viability at 72 h, 175 µM ([2]; WI-38, at 175 µM) does the source give for C#CC(Cl)CCCCCCCCCCCCCCC (racemic) [rac-36, 3-chlorooctadec-1-yne] here?
A: ~75%

Q: And the IC50 ([1]; Homo sapiens, WI-38, 72 h)?
A: > 175 µM

Q: And the “tumor selective cytotoxicity NSCLC vs WI-38 (in words)” value (NSCLC U-1810 cells)?
A: did not display any specific cytotoxicity

Q: And the IC50 (NSCLC U-1810 cells; Homo sapiens, U-1810, 72 h)?
A: 140 µM

Q: And the “Selectivity NSCLC cells” value (NSCLC U-1810 cells; calculated at IC50 of U-1810 and the highest dose applied in WI-38 (IC50 not reached))?
A: >1.3 ^u

Q: Which viability at 72 h, 188 µM [2] does the source give for C#C[C@@H](O)CCCCCCCCCCCCCCC [Compound S-32, (S)-octadec-1-yn-3-ol] here?
A: ~80%

Q: And the IC50 ([1]; Homo sapiens, WI-38, 72 h)?
A: > 188 µM

Q: And the IC50 (NSCLC U-1810 cells; Homo sapiens, U-1810, 72 h)?
A: 140 µM

Q: With C#CC(=O)/C=C/CCCCCCCCC/C=C\CCCCCC [Compound 10, Docos-(4E,15Z)-dien-1-yn-3-one] as the molecule, how does the IC50 ([1]; Homo sapiens, WI-38, 72 h) read?
A: 30 µM

Q: And the “cytotoxic activity” value (NSCLC U-1810 cells)?
A: not active

Q: And the IC50 (NSCLC U-1810 cells; Homo sapiens, U-1810, 72 h)?
A: ~80 µM

Q: And the “Selectivity NSCLC cells” value (NSCLC U-1810 cells; [3])?
A: ~0.4

Q: For C#C[C@@H](CCCCCCCCCCCCCCC)OC(=O)[C@](OC)(c1ccccc1)C(F)(F)F [R,R-34, (R)-((R)-octadec-1-yn-3-yl)-3,3,3-trifluoro-2-methoxy-2-phenylpropanoate], which viability at 72 h, 113 µM ([2]; WI-38, at 113 µM) is on record?
A: ~100%

Q: And the IC50 ([1]; Homo sapiens, WI-38, 72 h)?
A: > 113 µM

Q: And the IC50 (NSCLC U-1810 cells; Homo sapiens, U-1810, 72 h)?
A: > 113 µM

Q: What about the viability at 113 µM (NSCLC U-1810 cells; Homo sapiens, U-1810, at 113 µM, 72 h, read-out: cell viability) of the same molecule?
A: ~100%

Q: For C#CC(O)c1ccccc1 (racemic) [rac-49, 1-Phenylprop-2-yn-1-ol], which “cytotoxic activity” value (NSCLC U-1810 cells) is on record?
A: did not display any anti-tumor effect

Q: And the IC50 (NSCLC U-1810 cells; Homo sapiens, U-1810, 72 h)?
A: > 379 µM

Q: And the viability at 379 µM (NSCLC U-1810 cells; Homo sapiens, U-1810, at 379 µM, 72 h, read-out: cell viability)?
A: ~80%

Q: Which results are given for C#CC(=O)/C=C/CCCCCCCCC(C)CCCCCC (centres unmarked) [Compound 6, 14-Methylicos-(4E)-en-1-yn-3-one]?
A: IC50 ([1]; Homo sapiens, WI-38, 72 h): 73 µM; cytotoxic activity in NSCLC U-1810 cells (in words) (NSCLC U-1810 cells): not active; IC50 (NSCLC U-1810 cells; Homo sapiens, U-1810, 72 h): 65 µM; Selectivity NSCLC cells (U-1810) vs. diploid fibroblasts (WI-38) (NSCLC U-1810 cells; [3]): 1.1
